Laboratory results as given in patent publication US12121540B2, “CBL inhibitors and compositions for use in adoptive cell therapy” (Nurix Therapeutics, Inc., priority 2019, dated 2024).

Key:
[1] = test system: human tumor-infiltrating lymphocytes (TIL); assay: Rapid Expansion Protocol (REP) of TIL; type: cell-based; conditions: day 42 (Pre-REP and REP)
Procedure: PBMC, OKT3 antibody (30 ng/mL), complete medium (“CM”), AIM V media (GIBCO/BRL), and TIL effector cells were combined, mixed, and aliquoted to a 75 cm^2 tissue culture flask. Flasks were incubated upright at 37° C. in 5% CO2. […] About 14 days after initiation of the REP, cells were harvested and cryopreserved for future experimental analysis.

[2] = Compound stability in complete RPMI with 10% human serum (mass spectrometry); type: physicochemical
Procedure: To assess compound stability, at day 1, 1 μM compound 103 or DMSO was added to complete RMPI containing 10% human serum and stored at either 4° C., 22° C. or 37° C. over an 11 day time period. Concentration of compound 103 was assessed at each indicated timepoint and storage temperature by mass spectrometry. Compound 103 was stable for at least 11 days in RPMI medium (FIG. 33).

E.G7-OVA tumors = assay: Adoptive transfer of ex vivo expanded OT-1 cells into E.G7-OVA tumor-bearing mice: antitumor response; type: in vivo, mouse
Text: Antigen specific T cells from transgenic mice can be leveraged as a model for CAR T or TIL expansion ex vivo with a Cbl inhibitor. The OT-1 transgenic animals, that are commercially available, have CD8 T cells that recognize OVA peptide aa 257-264 when presented by the MHC I molecule. CD8+ T cells from OT-1 mice were isolated from a single cell suspension of splenocytes by negative selection (StemCell Technologies cat #19853 EasySep™ Mouse CD8+ T Cell Isolation Kit). Cell were then resuspended in complete media (RPMI1640, 10% heat inactivated FBS, 1× Penicillin/Streptomycin, 1× Glutamine and […]-mercaptoethanol) at concentration of 0.5×10^6 per mL. Six well tissue culture plates (Falcon) were coated with 2 ug/mL of anti-mouse CD3 (Bio Xcell Cat #BE0001-1-R100 mg InVivoMAb anti-mouse CD3ε Clone: 145-2C11) for >3 hrs at 37° C. and washed with PBS (MediaTech) prior to cell addition. […] Following three days of OT-1 T cell activation and expansion the cells were collected, counted and immunophenotyped by flow cytometry by measuring expression of differentiation and additional T cell makers including: CD3, CD4, CD8, CD45, CD25, Granzyme B, CD107a, CD127, PD-1, TIM3, LAG3, KLRG-1, ICOS, TCF1, Ki67, T-bet and FOXP3.
Dead cells were removed (Miltenyi Biotec Cat #130-090-101) prior to transfer in vivo to monitor their trafficking and function in an EG.7 lymphoma model, which expresses the OVA antigen. Approximately five million cells per mouse were transferred to mice having an average tumor burden of about 70 mm^3. Following in vivo transfer of the OT-1 cells, antitumor response was monitored over time and the quality and quantity of immune response were assessed at various time points.
The expanded OT-1 cells were characterized by FACS analysis and transferred into E.G7-OVA mice, which bear ovalbumin (OVA) expressing tumors. Following in vivo transfer of expanded OT-1 cells, antitumor response was monitored over time and the quality and quantity of immune response was assessed at various time points. Analysis included FACS analysis on blood, tumor, and spleen samples. Analysis also included re-stimulation of splenocytes with OVA Class I peptide to evaluate the multifunctionality of the antigen-specific effector T cells.
On Day 0, E.G7-OVA cells were implanted into each mouse. On Day 5, approximately 5×10^6 in vitro expanded OT-1 cells were injected into the tail of each mouse. On Day 9, blood was analyzed by FACS. On Day 14, blood, tumor and spleen samples were analyzed by FACS. On Day 27, blood was analyzed by FACS. Tumor volume was measured approximately every five days through about 50 days post implant.

## C[C@@H]1CN(Cc2cc3c(c(C(F)(F)F)c2)CN(c2cccc(C4(Cc5nncn5C)COC4)c2)C3=O)CCC1(F)F [compound 103]
[1]; TIL1 (ovary), 0.1 μM Cbl-i
  Expansion of TIL (REP), total cell number relative to IL-2 alone: 40%
[1]; TIL1 (ovary), 1.0 μM Cbl-i
  Expansion of TIL (REP), total cell number relative to IL-2 alone: 42%
[1]; TIL1 (ovary), 10 μM Cbl-i
  Expansion of TIL (REP), total cell number relative to IL-2 alone: 32%
[1]; TIL1 (ovary), IL-2 + 0.1 μM Cbl-i
  Expansion of TIL (REP), total cell number relative to IL-2 alone: 50%
[1]; TIL1 (ovary), IL-2 + 1.0 μM Cbl-i
  Expansion of TIL (REP), total cell number relative to IL-2 alone: 52%
[1]; TIL1 (ovary), IL-2 + 10 μM Cbl-i
  Expansion of TIL (REP), total cell number relative to IL-2 alone: 49%
[1]; TIL3 (ovary), 0.1 μM Cbl-i
  Expansion of TIL (REP), total cell number relative to IL-2 alone: 127%
[1]; TIL3 (ovary), 1.0 μM Cbl-i
  Expansion of TIL (REP), total cell number relative to IL-2 alone: 150%
[1]; TIL3 (ovary), 10 μM Cbl-i
  Expansion of TIL (REP), total cell number relative to IL-2 alone: 107%
[1]; TIL3 (ovary), IL-2 + 0.1 μM Cbl-i
  Expansion of TIL (REP), total cell number relative to IL-2 alone: 193%
[1]; TIL3 (ovary), IL-2 + 1.0 μM Cbl-i
  Expansion of TIL (REP), total cell number relative to IL-2 alone: 207%
[1]; TIL3 (ovary), IL-2 + 10 μM Cbl-i
  Expansion of TIL (REP), total cell number relative to IL-2 alone: 197%
[1]; TIL4 (colon), 0.1 μM Cbl-i
  Expansion of TIL (REP), total cell number relative to IL-2 alone: 80%
[1]; TIL4 (colon), 1.0 μM Cbl-i
  Expansion of TIL (REP), total cell number relative to IL-2 alone: 80%
[1]; TIL4 (colon), 10 μM Cbl-i
  Expansion of TIL (REP), total cell number relative to IL-2 alone: 107%
[1]; TIL4 (colon), IL-2 + 0.1 μM Cbl-i
  Expansion of TIL (REP), total cell number relative to IL-2 alone: 167%
[1]; TIL4 (colon), IL-2 + 1.0 μM Cbl-i
  Expansion of TIL (REP), total cell number relative to IL-2 alone: 194%
[1]; TIL4 (colon), IL-2 + 10 μM Cbl-i
  Expansion of TIL (REP), total cell number relative to IL-2 alone: 240%
[1]; TIL6 (ovary), 0.1 μM Cbl-i
  Expansion of TIL (REP), total cell number relative to IL-2 alone: 51%
[1]; TIL6 (ovary), 1.0 μM Cbl-i
  Expansion of TIL (REP), total cell number relative to IL-2 alone: 63%
[1]; TIL6 (ovary), 10 μM Cbl-i
  Expansion of TIL (REP), total cell number relative to IL-2 alone: 49%
[1]; TIL6 (ovary), IL-2 + 0.1 μM Cbl-i
  Expansion of TIL (REP), total cell number relative to IL-2 alone: 206%
[1]; TIL6 (ovary), IL-2 + 1.0 μM Cbl-i
  Expansion of TIL (REP), total cell number relative to IL-2 alone: 180%
[1]; TIL6 (ovary), IL-2 + 10 μM Cbl-i
  Expansion of TIL (REP), total cell number relative to IL-2 alone: 168%
[2]; 1 μM, complete RPMI with 10% human serum, 4° C., 22° C. or 37° C.
  Stability in RPMI medium: at least 11 days
[2]; 4° C.-37° C., 11 day period, FIG. 33
  Stability at multiple temperatures: stable
E.G7-OVA tumors; 3-day ex vivo exposure, alone or in combination with IL-2
  Anti-tumor phenotype of transferred T cells vs controls: conferred a lasting anti-tumor phenotype for over a month
E.G7-OVA tumors; OT-1 cells expanded with compound 103, FIG. 12A
  Inhibition of tumor growth vs IL-2 expanded cells: more pronounced inhibition of tumor growth
E.G7-OVA tumors; OT-1 cells expanded with compound 103, FIG. 12B
  Long-term survival vs IL-2 expanded cells: improved long-term survival
E.G7-OVA tumors; OT-1 cells expanded with compound 103 plus IL-2, FIG. 12A
  Inhibition of tumor growth vs single agents alone: more pronounced inhibition of tumor growth
E.G7-OVA tumors; OT-1 cells expanded with compound 103 plus IL-2, FIG. 12B
  Long term survival vs single agents alone: superior long term survival
E.G7-OVA tumors; expanded with compound 103 (1 μM) alone, FIGS. 11A and 11B
  Potency of expanded CD8+ OT-1 cells (tumor volume) vs IL-2 expanded: at least as potent
E.G7-OVA tumors; mice subcutaneously implanted with E.G7-OVA cells, FIG. 9
  Rejection of established tumors by expanded OT-1 cells: potent effectors capable of rejecting established tumors
